In patent publication US9730445B2, “Herbicidal compositions comprising 4-amino-3-chloro-5-fluoro-6-(4-chloro-2-fluoro-3-methoxyphenyl) pyridine-2-carboxylic acid or a derivative thereof and fungicides” (DOW AGROSCIENCES LLC, priority 2013, dated 2017):
Where “and” joins values, the source holds several entries; their conditions need not be identical. Identical values can stand only once.

How the values were obtained:
Test in all cases: Postemergence foliar-applied weed control, direct-seeded rice (greenhouse)
BRAPP = assay type: in vivo
Description: (§1) Seeds or nutlets of the desired test plant species were planted in a soil matrix prepared by mixing aloam or sandy loam soil (e.g., 28.6 percent silt, 18.8 percent clay, and 52.6 percent sand, with a pH of about 5.8 and an organic matter content of about 1.8 percent) and calcareous grit in an 80 to 20 ratio. The soil matrix was contained in plastic pots with a volume of 1 quart and a surface area of 83.6 square centimeters (cm^2). When required to ensure good germination and healthy plants, a fungicide treatment and/or other chemical or physical treatment was applied. The plants were grown for 8-22 days in a greenhouse with an approximate 14 hour (h) photoperiod which was maintained at about 29° C. during the day and 26° C. during the night. Nutrients (Peters Excel® 15-5-15 5-Ca 2-Mg and iron chelate) were applied in the irrigation solution as needed and water was added on a regular basis. Supplemental lighting was provided with overhead metal halide 1000-Watt lamps as necessary. The plants were employed for testing when they reached the first through fourth true leaf stage.
(§2) Treatments consisted of the acid or esters of 4-amino-3-chloro-5-fluoro-6-(4-chloro-2-fluoro-3-methoxy-phenyl)pyridine-2-carboxylic acid (Compound A), each formulated as an SC (suspension concentrate), and various fungicidal components alone and in combination. Forms of compound A were applied on an acid equivalent basis.
(§3) Treatment requirements were calculated based upon the rates being tested, the concentration of active ingredient or acid equivalent in the formulation and a 12 milliliter (mL) application volume at a rate of 187 liters per hectare (L/ha).
(§4) For treatments comprised of formulated compounds, measured amounts of compounds were placed individually in 25 mL glass vials and diluted in a volume of 1.25% volume per volume (v/v) Agri-Dex® crop oil concentrate to obtain 12× stock solutions. […] Application solutions were prepared by adding an appropriate amount of each stock solution (e.g., 1 mL) and diluted to the appropriate final concentrations with the addition of […] of an aqueous mixture of 1.25% (v/v) crop oil concentrate so that the final spray solutions contained 1.25+/−0.05% (v/v) crop oil concentrate.
(§5) For treatments comprised of technical compounds, weighed amounts can be placed individually in 25 mL glass vials and dissolved in a volume of 97:3 volume per volume (v/v) acetone/dimethyl sulfoxide (DMSO) to obtain 12× stock solutions. […] When technical materials are used, the concentrated stock solutions can be added to the spray solutions so that the final acetone and DMSO concentrations of the application solutions are 16.2% and 0.5%, respectively.
(§6) As required, additional water and/or 97:3 v/v acetone/DMSO was added to individual application solutions so that the final acetone and DMSO concentrations of the application solutions being compared were 8.1% and 0.25%, respectively
(§7) All stock solutions and applications solutions were visually inspected for compound compatibility prior to application. Spray solutions were applied to the plant material with an overhead Mandel track sprayer equipped with 8002E nozzles calibrated to deliver 187 L/ha over an application area of 0.503 square meters (m^2) at a spray height of 18 to 20 inches (46 to 50 cm) above average plant canopy height. Control plants were sprayed in the same manner with the solvent blank.
(§8) The treated plants and control plants were placed in a greenhouse as described above and watered by sub-irrigation to prevent wash-off of the test compounds. After approximately 3 weeks, the condition of the test plants as compared with that of the untreated plants was determined visually and scored on a scale of 0 to 100 percent where 0 corresponds to no injury or growth inhibition and 100 corresponds to complete kill. […]

CYPES = assay type: in vivo, Cyperus esculentus L. (yellow nutsedge)
Method: as §1, with “When required to ensure good germination and healthy plants, a fungicide treatment and/or other chemical or physical treatment was applied.” left out
as §2, §4, §5, §6, §7, §8

ECHCG = assay type: in vivo, Echinochloa crus-galli (L.) P. Beauv. (barnyardgrass)
ECHCO = assay type: in vivo, Echinochloa colonum (L.) LINK (junglerice)
Description: as §1, §2, §3, §4, §5, §6, §7, §8

ECHOR = assay type: in vivo, Echinochloa oryzoides (Ard.) Fritsch (early watergrass); conditions: r78-80 ester 8/16/32 g ae/ha alone, r81-83 difenoconazole 50/100/200 g ai/ha alone, r84-92 ester 8/16/32 at each of 50, 100, 200
Method: as §1, with “When required to ensure good germination and healthy plants, a fungicide treatment and/or other chemical or physical treatment was applied.” left out
as §2
For treatments comprised of formulated compounds, measured amounts of compounds were placed individually in 25 mL glass vials and diluted in a volume of 1.25% volume per volume (v/v) Agri-Dex® crop oil concentrate to obtain 12× stock solutions. […]
as §8

IPOHE = assay type: in vivo, Ipomoea hederacea (L.) Jacq. (ivyleaf morningglory); conditions: r10-12 ester 4.38/8.75/17.5 g ae/ha alone, r13 difenoconazole 200 g ai/ha alone, r14-16 ester 4.38/8.75/17.5 + 200
[1] = r38-39 ester 8/16 g ae/ha alone, r40 isotianil 380 g ai/ha alone, r41-42 ester 8/16 + 380
[2] = r9-11 ester 8/16/32 g ae/ha alone, r12-14 hexaconazole 25/50/100 g ai/ha alone, r15-23 ester 8/16/32 at each of 25, 50, 100

COc1c(Cl)ccc(-c2nc(C(=O)OCc3ccccc3)c(Cl)c(N)c2F)c1F [Compound A Benzyl Ester]
Visual Weed Control (%)—20 DAA BRAPP Obs (BRAPP; 20 DAA, r9-11 ester 8/16/32 g ae/ha alone, r12 isotianil 200 g ai/ha alone, r13-15 ester 8/16/32 + 200): 85% and 90% and 60% | Visual Weed Control (%)—21 DAA BRAPP Obs (BRAPP; r29-30 ester 8/16 g ae/ha alone, r31-33 hexaconazole 25/50/100 g ai/ha alone, r34-39 ester 8/16 at each of 25, 50, 100): 55% and 60% | Visual Weed Control (%)—21 DAA BRAPP Obs (BRAPP; [1]): 55% and 60% | Visual Weed Control (%) - 21 DAA CYPES Obs (CYPES; r26 ester 8 g ae/ha alone, r27-29 phthalide 100/200/300 g ai/ha alone, r30-32 ester 8 + 100/200/300): 10% | Visual Weed Control (%)—21 DAA CYPES Obs (CYPES; r45 ester 8 g ae/ha alone, r46-48 kasugamycin 17.5/35/70 g ai/ha alone, r49-51 ester 8 + 17.5/35/70): 70% | Visual Weed Control (%)—21 DAA ECHCG Obs (ECHCG; [2]): 85% and 90% and 45% | Visual Weed Control (%)—21 DAA ECHCG Obs (ECHCG; [1]): 45% and 85% | Visual Weed Control (%) - 21 DAA ECHCG Obs (ECHCG; r58-60 ester 8/16/32 g ae/ha alone, r61-63 difenoconazole 50/100/200 g ai/ha alone, r64-72 ester 8/16/32 at each of 50, 100, 200): 70% and 60% and 90% | Visual Weed Control (%) - 19 DAA ECHCO Obs (ECHCO; r9-11 ester 8/16/32 g ae/ha alone, r12-13 carbendazim 125/250 g ai/ha alone, r14-19 ester 8/16/32 at each of 125, 250): 90% and 95% and 65% | Visual Weed Control (%) - 19 DAA ECHCO Obs (ECHCO; r9-11 ester 8/16/32 g ae/ha alone, r12-13 flutolanil 280/560 g ai/ha alone, r14-19 ester 8/16/32 at each of 280, 560): 90% and 95% and 65% | Visual Weed Control (%)—21 DAA ECHCO Obs (ECHCO; [2]): 65% and 85% and 50% | Visual Weed Control (%)—21 DAA ECHCO Obs (ECHCO; [1]): 50% and 65% | Visual Weed Control (%) - 21 DAA ECHOR Obs (ECHOR): 45% and 43% and 70% | Visual Weed Control (%) - 21 DAA IPOHE Obs (IPOHE): 10% and 20%
